Source: ChEMBL document CHEMBL5729357, “Isothiazolo[5,4-D]pyrimidine compound as IRAK4 inhibitor” (2022)

Molecular target: T1, Interleukin-1 receptor-associated kinase 4 (Homo sapiens, UniProt Q9NWZ3)
T1 sequence (Q9NWZ3 whole entry): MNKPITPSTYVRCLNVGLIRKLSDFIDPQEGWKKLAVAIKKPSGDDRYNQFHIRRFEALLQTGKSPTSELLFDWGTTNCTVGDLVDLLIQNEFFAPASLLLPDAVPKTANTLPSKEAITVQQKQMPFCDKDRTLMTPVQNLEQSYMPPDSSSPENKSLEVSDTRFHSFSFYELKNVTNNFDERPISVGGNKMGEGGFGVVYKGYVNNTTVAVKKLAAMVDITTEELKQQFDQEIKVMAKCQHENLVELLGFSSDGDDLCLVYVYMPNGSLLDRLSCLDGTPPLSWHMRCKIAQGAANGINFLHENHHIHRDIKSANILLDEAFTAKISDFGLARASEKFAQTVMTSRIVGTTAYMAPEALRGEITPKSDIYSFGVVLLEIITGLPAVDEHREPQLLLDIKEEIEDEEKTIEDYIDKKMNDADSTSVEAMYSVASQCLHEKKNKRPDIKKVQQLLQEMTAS
Test: In Vitro Enzymatic Activity Evaluation: The inhibitory activity of the test compounds against human IRAK4 was evaluated by measuring IC50 values in a 33P-labeled kinase activity assay (Reaction Biology Corp).Buffer conditions: 20 mM Hepes (pH 7.5), 10 mM MgCl2, 1 mM EGTA, 0.02% Brij35, 0.02 mg/mL BSA, 0.1 mM Na3VO4, 2 mM DTT, 1% DMSO.Procedures: The test compound was dissolved in DMSO at room temperature to prepare a 10 mM solution for later use. The substrate was dissolved in fresh buffer, to which the kinase was added and mixed well. The DMSO solution containing the test compound was added to the above mixed reaction system by an acoustic technique (Echo 550). The concentrations of the compounds in reaction system were 10 μM, 3.33 μM, 1.11 μM, 0.370 μM, 0.123 μM, 41.2 nM, 13.7 nM, 4.57 nM, 1.52 nM, and 0.508 nM. After 15 minutes of incubation, the reaction was started by adding 33P-ATP (activity: 0.01 μCi/μL; the corresponding concentration is listed in Table 1). Supplier's catalog number, lot number and concentration information in the reaction system for IRAK4 and its substrate are listed in Table 1. After 120 minutes of reaction at room temperature, the resulting solution was loaded on P81 ion exchange chromatography paper sheet (Whatman #3698-915). […]

Row | IC50 | SMILES
1 | 13.5 nM | Cc1nsc2nc(Nc3cnn(C4(C)COC4)c3)nc(N[C@H]3CC[C@H](N4CCOCC4)CC3)c12
2 | 231 nM | Cc1nsc2nc(Nc3cnn(C4CCOCC4)c3)nc(N[C@H]3CC[C@H](N4C[C@H]5C[C@@H]4CN5C(C)C)CC3)c12
